Measured values as given in ChEMBL document CHEMBL5120959, “Pyrrospirones K-Q, Decahydrofluorene-Class Alkaloids from the Marine-Derived Fungus Penicillium sp. SCSIO 41512” (J Nat Prod, 2022).
In brackets after ≈: the same amount, converted by molar mass.

Tested on: Mycobacterium tuberculosis
Assay: Antitubercular activity against Mycobacterium tuberculosis H37Ra
Format: functional

C=C[C@H]1C=C[C@@H]2[C@@H]3[C@@H](Oc4ccc(cc4)C[C@@]4(O)C[C@H](C(=O)N4)C(=O)[C@@H]13)[C@@H]1CC[C@@H](C)C[C@@]21C
MIC: 0.78 µg/mL (≈ 1.69 µM)
